Among the data in patent US11040975B2, “Carbocyclic nucleoside reverse transcriptase inhibitors” (Merck Sharp & Dohme Corp., priority 2017, dated 2021) are IC50 values, retold here.

The subject of the first test is HIV-1 (H9IIIB virus). As to the kind of experiment: Viking assay: antiviral potency in a multiple round HIV-1 infection assay (MT4-GFP cells). The test is classed as cell-based. The settings on record: Human immunodeficiency virus 1, MT4-GFP cells, 10% normal human serum; inhibition of reproductive ratio R0; read-out: Viking, IC50 (10% NHS). As to the method: Assessing Antiviral Potency in a Multiple Round HIV-1 Infection Assay.
HIV-1 replication was monitored using MT4-gag-GFP clone D3 (hereafter designate MT4-GFP), which are MT-4 cells modified to harbor a GFP reporter gene, the expression of which is dependent on the HIV-1 expressed proteins tat and rev. Productive infection of an MT4-GFP cell with HIV-1 results in GFP expression approximately 24h post-infection.
MT4-GFP cells were maintained at 37° C./5% CO2/90% relative humidity in RPMI 1640 supplemented with 10% fetal bovine serum, 100 U/mL penicillin/streptomycin, and 400 μg/mL G418 to maintain the reporter gene. For infections, MT4-GFP cells were placed in the same medium lacking G418 and infected overnight with H9IIIB virus at an approximate multiplicity of infection of 0.01 in the same incubation conditions. Cells were then washed and re-suspended in either RPMI 1640 containing 10% or 50% normal human serum at 1.6×10^5 cells/mL. Compound plates were prepared by dispensing compounds dissolved in DMSO into wells of 384 well poly D lysine-coated plates ([…]) using an ECHO acoustic dispenser. Each compound was tested in a 10 point serial 3-fold dilution (typical final concentrations: 8.4 μM-0.43 nM). Controls included no inhibitor (DMSO only) and a combination of three antiviral agents (efavirenz, indinavir, and an integrase strand transfer inhibitor at final concentrations of 4 μM each). Cells were added (50 μL/well) to compound plates and the infected cells were maintained at 37° C./5% CO2/90% relative humidity.
Infected cells were quantified at two time points, ˜48h and ˜72h post-infection, by counting the number of green cells in each well using an Acumen eX3 scanner. The increase in the number of green cells over ˜24h period gives the reproductive ratio, R0, which is typically 5-15 and has been shown experimentally to be in logarithmic phase (data not shown). Inhibition of R0 is calculated for each well, and IC50s determined by non-linear 4-parameter curve fitting.
In the case of `C#C[C@]1(CO[P@@](=O)(N[C@@H](C)C(=O)OC(C)C)Oc2ccccc2)C[C@@H](n2cnc3c(OCC)nc(N)nc32)C[C@@H]1O` (mixture of isomers) [Example 39A and 39B, Isopropyl ((S)-(((1S,2S,4R)-4-(2-amino-6-ethoxy-9H-purin-9-yl)-1-ethynyl-2-hydroxycyclopentyl)methoxy)(phenoxy)phosphoryl)-L-alaninate and Isopropyl ((S)-(((1R,2R,4S)-4-(2-amino-6-ethoxy-9H-purin-9-yl)-1-ethynyl-2-hydroxycyclopentyl)methoxy)(phenoxy)phosphoryl)-L-alaninate], the IC50 amounted to 0.0271 µM.

In the case of `C#C[C@]1(CO)C[C@@H](n2cnc3c(Cl)nc(F)nc32)C[C@@H]1O` (racemic) [Example (+/−) 12, (1S,2S,4R)-4-(6-chloro-2-fluoro-9H-purin-9-yl)-2-ethynyl-2-(hydroxymethyl)cyclopentan-1-ol and (1R,2R,4S)-4-(6-chloro-2-fluoro-9H-purin-9-yl)-2-ethynyl-2-(hydroxymethyl)cyclopentan-1-ol], the half-inhibitory concentration (IC50) was over 42 µM.

For the molecule `C#C[C@]1(CO)C[C@@H](n2ccc3c(Cl)nc(Cl)nc32)C[C@@H]1O` (racemic) [Example (+/−) 21, (1S,2S,4R)-4-(2,4-dichloro-7H-pyrrol[2,3-d]pyrimidin-7-yl)-2-ethynyl-2-(hydroxymethyl)cyclopentan-1-ol and (1R,2R,4S)-4-(2,4-dichloro-7H-pyrrolo[2,3-d]pyrimidin-7-yl)-2-ethynyl-2-(hydroxymethyl)cyclopentan-1-ol], the 50% inhibitory concentration (IC50) is over 42 µM.

For `C#C[C@]1(CO)C[C@@H](n2ccc3c(N)nc(Cl)nc32)C[C@@H]1O` (racemic) [Example (+/−) 22, (1S,2S,4R)-4-(4-amino-2-chloro-7H-pyrrolo[2,3-d]pyrimidin-7-yl)-2-ethynyl-2-(hydroxymethyl)cyclopentan-1-ol and (1R,2R,4S)-4-(4-amino-2-chloro-7H-pyrrolo[2,3-d]pyrimidin-7-yl)-2-ethynyl-2-(hydroxymethyl)cyclopentan-1-ol], the IC50 amounted to 22.2 µM.

On to `C#C[C@]1(CO)C[C@@H](n2cnc3c(=O)[nH]c(N)nc32)C[C@@H]1O` (racemic) [Example (+/−) 26, 2-amino-9-((1R,3S,4S)-3-ethynyl-4-hydroxy-3-(hydroxymethyl)cyclopentyl)-1,9-dihydro-6H-purin-6-one and 2-amino-9-((1S,3R,4R)-3-ethynyl-4-hydroxy-3-(hydroxymethyl)cyclopentyl)-1,9-dihydro-6H-purin-6-one], for which the IC50 turned out to be 0.195 µM.

Consider `C#C[C@]1(CO)C[C@@H](n2cnc3c(OCC)nc(N)nc32)C[C@@H]1O` (racemic) [Example (+/−) 30, (1S,2S,4R)-4-(2-amino-6-ethoxy-9H-purin-9-yl)-2-ethynyl-2-(hydroxymethyl)cyclopentan-1-ol and (1R,2R,4S)-4-(2-amino-6-ethoxy-9H-purin-9-yl)-2-ethynyl-2-(hydroxymethyl)cyclopentan-1-ol], for which the IC50 amounted to 0.614 µM.

As to `C#C[C@]1(CO)C[C@@H](n2cc(C)c(=O)[nH]c2=O)C[C@@H]1O` (racemic) [Example (+/−) 34, 1-((1R,3S,4S)-3-ethynyl-4-hydroxy-3-(hydroxymethyl)cyclopentyl)-5-methylpyrimidine-2,4(1H,3H)-dione and 1-((1S,3R,4R)-3-ethynyl-4-hydroxy-3-(hydroxymethyl)cyclopentyl)-5-methylpyrimidine-2,4(1H,3H)-dione], the IC50 was over 42 µM.

Turning to `C#C[C@]1(CO)C[C@@H](n2ccc(N)nc2=O)C[C@@H]1O` (racemic) [Example (+/−) 38, 4-amino-1-((1R,3S,4S)-3-ethynyl-4-hydroxy-3-(hydroxymethyl)cyclopentyl)pyrimidin-2(1H)-one and 4-amino-1-((1S,3R,4R)-3-ethynyl-4-hydroxy-3-(hydroxymethyl)cyclopentyl)pyrimidin-2(1H)-one], the IC50 is over 42 µM.

As for `N#C[C@]1(CO)C[C@@H](n2cnc3c(=O)[nH]c(N)nc32)C[C@@H]1O` (racemic) [Example (+/−) 61, (1S,2S,4R)-4-(2-amino-6-oxo-1,6-dihydro-9H-purin-9-yl)-2-hydroxy-1-(hydroxymethyl)cyclopentane-1-carbonitrile and (1R,2R,4S)-4-(2-amino-6-oxo-1,6-dihydro-9H-purin-9-yl)-2-hydroxy-1-(hydroxymethyl)cyclopentane-1-carbonitrile], the concentration for half-maximal inhibition (IC50) turned out to be 0.998 µM.

Turning to `N#C[C@]1(CO)C[C@@H](n2ccc(N)nc2=O)C[C@@H]1O` (racemic) [Example (+/−) 65, (1S,2S,4R)-4-(4-amino-2-oxopyrimidin-1(2H)-yl)-2-hydroxy-1-(hydroxymethyl)cyclopentane-1-carbonitrile and (1R,2R,4S)-4-(4-amino-2-oxopyrimidin-1(2H)-yl)-2-hydroxy-1-(hydroxymethyl)cyclopentane-1-carbonitrile], the IC50 was over 42 µM.

`Cc1cn([C@H]2C[C@H](O)[C@@](C#N)(CO)C2)c(=O)[nH]c1=O` (racemic) [Example (+/−) 69, (1S,2S,4R)-2-hydroxy-1-(hydroxymethyl)-4-(5-methyl-2,4-dioxo-3,4-dihydropyrimidin-1(2H)-yl)cyclopentane-1-carbonitrile and (1R,2R,4S)-2-hydroxy-1-(hydroxymethyl)-4-(5-methyl-2,4-dioxo-3,4-dihydropyrimidin-1(2H)-yl)cyclopentane-1-carbonitrile]: the IC50 was 16 µM.

For the molecule `C#C[C@]1(CO)C[C@@H](n2cnc3c(N)nc(Cl)nc32)C[C@@H]1O` (single isomer, unassigned) [Example 18B, (1S,2S,4R)-4-(6-amino-2-chloro-9H-purin-9-yl)-2-ethynyl-2-(hydroxymethyl)cyclopentan-1-ol or (1R,2R,4S)-4-(6-amino-2-chloro-9H-purin-9-yl)-2-ethynyl-2-(hydroxymethyl)cyclopentan-1-ol], the IC50 came out at 11.7 µM.

Take `C#C[C@@]1(CO[P@@](=O)(N[C@@H](C)C(=O)OC(C)C)Oc2ccccc2)C[C@H](n2cnc3c(OCC)nc(N)nc32)C[C@H]1O` (single isomer, unassigned) [Example 39A, Isopropyl ((S)-(((1S,2S,4R)-4-(2-amino-6-ethoxy-9H-purin-9-yl)-1-ethynyl-2-hydroxycyclopentyl)methoxy)(phenoxy)phosphoryl)-L-alaninate or Isopropyl ((S)-(((1R,2R,4S)-4-(2-amino-6-ethoxy-9H-purin-9-yl)-1-ethynyl-2-hydroxycyclopentyl)methoxy)(phenoxy)phosphoryl)-L-alaninate]: the half-inhibitory concentration (IC50) came to 0.484 µM.

The same test, now with this note: MT4-GFP cells, 10% normal human serum; inhibition of reproductive ratio R0; read-out: Viking, IC50 (10% NHS).
In the case of `C#C[C@]1(CO)C[C@@H](n2cnc3c(=O)[nH]c(N)nc32)C[C@@H]1O` (single isomer, unassigned) [Example 26A, 2-amino-9-((lR,3S,4S)-3-ethynyl-4-hydroxy-3-(hydroxymethyl)cyclopentyl)-1,9-dihydro-6H-purin-6-one or 2-amino-9-((1S,3R,4R)-3-ethynyl-4-hydroxy-3-(hydroxymethyl)cyclopentyl)-1,9-dihydro-6H-purin-6-one], the IC50 is over 42 µM.

Regarding `C#C[C@]1(CO)C[C@@H](n2cnc3c(=O)[nH]c(N)nc32)C[C@@H]1O` (single isomer, unassigned) [Example 26B, 2-amino-9-((1R,3S,4S)-3-ethynyl-4-hydroxy-3-(hydroxymethyl)cyclopentyl)-1,9-dihydro-6H-purin-6-one or 2-amino-9-((1S,3R,4R)-3-ethynyl-4-hydroxy-3-(hydroxymethyl)cyclopentyl)-1,9-dihydro-6H-purin-6-one], the IC50 turned out to be 0.142 µM.

Usually IC50 stands for the concentration needed to halve the response being measured.
